In ChEMBL document CHEMBL4673271, “Denigrins and Dactylpyrroles, Arylpyrrole Alkaloids from a Dactylia sp. Marine Sponge” (J Nat Prod, 2020):
Starred links: 1 amine or outer side, 2 acyl side, 3 side chain; linkers in the order of their positions; H or OH if unused. Positions of bridges follow the written chain, without caps; N, C: chain ends. Non-standard residues stand in square brackets, D forms with d. Residues, ends and D or L forms follow the SMILES beside them. Chains are numbered I, II in the order given. Actinocin(1to9) = Cc1c2oc3c(C)ccc(C(=O)[*:2])c3nc-2c(C(=O)[*:1])c(N)c1=O; NMeV = CN[C@H](C(=O)O)C(C)C; Sar = CNCC(=O)O

Experiments:
Assay type in all cases: cell-based
[1] = Inhibition of PAX3-FOXO1 (unknown origin) stably transfected Rh4 cells co-expressing ALK-Luc after 24 hrs by SteadyLite luciferase assay; details: Homo sapiens, Rh4, 24 h
[2] = Inhibition of PAX3-FOXO1 (unknown origin) stably transfected Rh4 cells co-expressing CMV-Luc after 24 hrs by SteadyLite luciferase assay; details: Homo sapiens, Rh4, 24 h
[3] = Cytotoxicity against human Rh4 cells assessed as reduction in cell viability >=20 uM

O=C1C(c2ccc(O)cc2)=C2C(=C(c3ccc(O)cc3)C(=O)N2CCc2ccc(O)cc2)c2c1[nH]c1c(O)cccc21
IC50 [1]: 13 µM | IC50 [2]: 13 µM | Activity [3]: Toxic

Cc1c2oc3c(C)ccc(C(=O)N[C@@H]4C(=O)N[C@H](C(C)C)C(=O)N5CCC[C@H]5C(=O)N(C)CC(=O)N(C)[C@@H](C(C)C)C(=O)O[C@@H]4C)c3nc-2c(C(=O)N[C@@H]2C(=O)N[C@H](C(C)C)C(=O)N3CCC[C@H]3C(=O)N(C)CC(=O)N(C)[C@@H](C(C)C)C(=O)O[C@@H]2C)c(N)c1=O [DACTINOMYCIN] (I: T[dV]P[Sar][NMeV] / II: T[dV]P[Sar][NMeV]; ester I:1-I:C, II:1-II:C; linker I:N-II:N via Actinocin(1to9))
IC50 [1]: 0.001 µM | IC50 [2]: 0.001 µM
